PubChem BioAssay AID1963980 (Molecular Pharmacology Branch, DTP, NCI, 2024)

Tested on: 475296-252-R-J1-PDC spheroid viability
Experiment: Anticancer human tumor 475296-252-R-J1-PDC patient-derived rectal carcinoma cell line growth inhibition [PI3K]
Settings: spheroids with HUVEC and MSC; for IC50: curve of first compound; for viability, T/C: stronger effect = lower value
Excerpt: Combinatorial screen of targeted agents with the PI3K inhibitors inavolisib, alpelisib, duvelisib, and copanlisib in multi-cell type tumor spheroids
A high-throughput screen of multi-cell type tumor spheroids was designed to identify active combinations of targeted small molecules and PI3K pathway inhibitors. Complex spheroids include a stromal component modeled by human endothelial cells (HUVEC) and fibroblasts modeled by human mesenchymal stem cells (MSCs). The concentration ranges selected for each drug and investigational agent were based upon clinically achievable concentrations if the clinical Cmax of the agent was known.
Compounds. The drugs and investigational agents: inavolisib (NSC800729), alpelisib (NSC765974), duvelisib (NSC772469), copanlisib (NSC816437), ipatasertib (NSC767898), afuresertib (NSC778305), talazoparib (NSC767125), sapanisertib (NSC764658), selumetinib (NSC741078), tovorafenib (DAY101, NSC766906), vemurafenib (NSC761431), ravoxertinib (NSC781343), sotorasib (NSC818433), MRTX1133 (NSC 836407), abemaciclib (NSC 768073), palbociclib (NSC758247), venetoclax (NSC 766270), SY5609 (NSC837396), enzalutamide (NSC755605), and darolutamide (NSC825331), were obtained from the National Cancer Institute (NCI) Developmental Therapeutics Program Chemical Repository. The FDA-approved anticancer drug set is available from the NCI Developmental Therapeutics Program. […] The stock solutions were prepared in dimethyl sulfoxide (DMSO, Sigma-Aldrich, St. Louis, MO, cat. D2650) at 800-fold the tested concentration and stored at -70 degrees C prior to their use. All drugs and investigational agents were tested over a range starting from a high concentration at or near the clinical Cmax and decreasing in half-log increments. If the clinical Cmax for an agent had not been determined, the highest concentration tested was 10 microM.
Cell Culture. All cells were maintained in an incubator at 37 degrees C and 5% CO2 with 95% humidity. The PDC lines were cultured according to standard operating procedures established by the NCI PDMR (https://pdmr.cancer.gov/sops/default.htm). All PDCs were thawed and cultured in Matrigel-coated flasks prepared with a working solution of 1X Ham's F-12 nutrient mix, without supplementation (Invitrogen, Waltham, MA, cat. 11765054), 100 U/mL penicillin-streptomycin (Invitrogen, cat. 15140122), and 2.5% Matrigel (Corning Inc., Corning, NY, cat. 354248) for the first three passages. The 354836-022-R-J1-PDC, 475296-252-R-J1-PDC, and 997726-040-R-J2-PDC lines were cultured in 6A media, which includes advanced DMEM/F-12 (Thermo Fisher Scientific, cat. 12634028), 10 mM HEPES (Thermo Fisher Scientific, cat. 15630080), 1X GlutaMAX supplement (Thermo Fisher Scientific, cat. 35050061), 0.1 mg/mL primocin (InvivoGen, San Diego, CA, cat. ant-pm-2), 10% defined fetal bovine serum, heat inactivated (HyClone Laboratories Inc., Logan, UT, cat. SH30070.03HI), 50% L-WRN conditioned media (ATCC, cat. CRL-3276), 1.25 mM N-Acetyl-L-cysteine (Sigma-Aldrich, cat. A9165), 10 mM nicotinamide (Sigma-Aldrich, cat. N0636), 1X B-27 supplement (Thermo Fisher Scientific, cat. 17504044), 1X N-2 supplement (Thermo Fisher Scientific, cat. 17502048), and 10 microM Y-27632 dihydrochloride (Tocris Bioscience, Bristol, United Kingdom, cat. 1254). The 624824-186-R-J2-PDC line was cultured in 6C/Colon 1B media, which includes all 6A media components plus 50 ng/mL human EGF recombinant protein (Thermo Fisher Scientific, cat. PHG0311). […]
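Note: spheroids exposed to agents for seven days before readout.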

Cn1ncnc1[C@H]1c2n[nH]c(=O)c3cc(F)cc(c23)N[C@@H]1c1ccc(F)cc1 + CC(Nc1ccc2c(c1)OCCn1cc(N3C(=O)OCC3C(F)F)nc1-2)C(N)=O
IC50 (second compound 0.00316 µM): > 100 nM | IC50 (second compound 0.01 µM): > 100 nM | IC50 (second compound 0.0316 µM): > 100 nM | IC50 (second compound 0.1 µM): > 100 nM | IC50 (second compound 0.316 µM): > 100 nM | IC50 (second compound 1 µM): > 100 nM | viability, T/C (second compound 0.00316 µM, first compound 0.000316 µM): 88.1% | viability, T/C (second compound 0.00316 µM, first compound 0.001 µM): 84.3% | viability, T/C (second compound 0.00316 µM, first compound 0.00316 µM): 94.8% | viability, T/C (second compound 0.00316 µM, first compound 0.01 µM): 93.2% | viability, T/C (second compound 0.00316 µM, first compound 0.0316 µM): 97.2% | viability, T/C (second compound 0.00316 µM, first compound 0.1 µM): 90.1% | viability, T/C (second compound 0.01 µM, first compound 0.000316 µM): 98.4% | viability, T/C (second compound 0.01 µM, first compound 0.001 µM): 82.9% | viability, T/C (second compound 0.01 µM, first compound 0.00316 µM): 89.2% | viability, T/C (second compound 0.01 µM, first compound 0.01 µM): 95.1% | viability, T/C (second compound 0.01 µM, first compound 0.0316 µM): 92.8% | viability, T/C (second compound 0.01 µM, first compound 0.1 µM): 92% | viability, T/C (second compound 0.0316 µM, first compound 0.000316 µM): 86.1% | viability, T/C (second compound 0.0316 µM, first compound 0.001 µM): 104% | viability, T/C (second compound 0.0316 µM, first compound 0.00316 µM): 88.8% | viability, T/C (second compound 0.0316 µM, first compound 0.01 µM): 87.4% | viability, T/C (second compound 0.0316 µM, first compound 0.0316 µM): 88% | viability, T/C (second compound 0.0316 µM, first compound 0.1 µM): 96.6% | viability, T/C (second compound 0.1 µM, first compound 0.000316 µM): 92.4% | viability, T/C (second compound 0.1 µM, first compound 0.001 µM): 101% | viability, T/C (second compound 0.1 µM, first compound 0.00316 µM): 93.6% | viability, T/C (second compound 0.1 µM, first compound 0.01 µM): 92.6% | viability, T/C (second compound 0.1 µM, first compound 0.0316 µM): 89.7% | viability, T/C (second compound 0.1 µM, first compound 0.1 µM): 97.9% | viability, T/C (second compound 0.316 µM, first compound 0.000316 µM): 81.8% | viability, T/C (second compound 0.316 µM, first compound 0.001 µM): 83.4% | viability, T/C (second compound 0.316 µM, first compound 0.00316 µM): 86.1% | viability, T/C (second compound 0.316 µM, first compound 0.01 µM): 84.6% | viability, T/C (second compound 0.316 µM, first compound 0.0316 µM): 89.8% | viability, T/C (second compound 0.316 µM, first compound 0.1 µM): 81.6% | viability, T/C (second compound 1 µM, first compound 0.000316 µM): 84.5% | viability, T/C (second compound 1 µM, first compound 0.001 µM): 71.6% | viability, T/C (second compound 1 µM, first compound 0.00316 µM): 87% | viability, T/C (second compound 1 µM, first compound 0.01 µM): 89.1% | viability, T/C (second compound 1 µM, first compound 0.0316 µM): 85% | viability, T/C (second compound 1 µM, first compound 0.1 µM): 79.6%
